Earlier results as cited in publication PMC4761099 (British Journal of Pharmacology, 2016).

Tested on: Ob/ob mice
Conditions: leptin mutant mice, acute setting; ref Kerr et al., 2011

## GIP(8-42): literature GIP fragment (Kerr et al., 2011) (SDYSIAMDKIHQQDFVNWLLAQKGKKNDWKHNITQ; Gastric inhibitory polypeptide; UniProt P09681 59-93, looked up, fragment)
  antagonism of GIP(1–42) in vivo, in words: decreased insulin secretion and increased plasma glucose
